This note sets out measurements from PubChem BioAssay AID1996.

Converted amounts (≈) assume the structure as drawn. Where only a bound is given, the exact number is not on record here.

The conditions of this data set: buffer; pH 7.4; 200.0 µM.
One may read the kinetic solubility as the concentration staying in solution when a stock, usually in DMSO, is diluted into the medium. `CCCCN1C(=O)C(=O)N(CC(=O)Nc2ccccc2C(=O)OCC)C1=O` had a solubility (kinetic) of 55.1 µg/mL (≈ 147 µM).
To `CSCc1cc(N(C)c2ccccc2)nc(-c2ccccn2)n1` belongs 42.8 µg/mL (≈ 133 µM); to `O=C1NC2=C(C(=O)CCC2)C(c2ccc(OC(F)F)cc2)N1` (stereo not drawn), 41.8 µg/mL (≈ 136 µM).
Molecule `CNS(=O)(=O)c1ccc(NC(=O)Nc2ccc3c(c2)OCO3)cc1` gave a kinetic solubility of 15.6 µg/mL (≈ 44.7 µM).
In turn, `COc1ccc(C2(NC(C)=O)CCN(Cc3cccnc3)CC2)cc1` yielded a solubility (kinetic) of 40.9 µg/mL (≈ 120 µM).
To `NC(=O)Cn1c(=O)n(Cc2ccccc2)c(=O)c2cccnc21` belongs 33.8 µg/mL (≈ 109 µM); to `O=C(N=C1SC2CS(=O)(=O)CC2N1c1ccccc1)c1ccccc1` (stereo not drawn), 4 µg/mL (≈ 10.7 µM).
With `Cc1cc(/C=C(\C#N)C(=O)NCc2ccccc2)cc(C)c1O` the figure was under 0.3 µg/mL; with `COc1ccc(Cl)cc1C(=O)NCC(c1ccco1)N(C)C` (stereo not drawn), 45.1 µg/mL (≈ 140 µM); with `CC(=O)O/N=C/c1c(NCc2ccccc2)nc2c(C)cccn2c1=O`, 25.7 µg/mL (≈ 73.3 µM).
With `CCOC(=O)N1CCN(c2ccnc3cc(Cl)ccc23)CC1` the figure was 43.9 µg/mL (≈ 137 µM); with `Cc1ccc(CSCC(=O)Nc2ccccc2F)cc1`, 27.6 µg/mL (≈ 95.4 µM).
Molecule `N/C(CS(=O)(=O)c1ccccn1)=N\OC(=O)c1ccc(Cl)cc1` showed a kinetic solubility of 19.1 µg/mL (≈ 54 µM).
For `COC(=O)CCc1nc2cc(Cl)ccc2n(Cc2ccccc2)c1=O`, the solubility (kinetic) was found to be 1.4 µg/mL (≈ 3.92 µM).
With `CC(NC(=O)C12CC3CC(CC(C3)C1)C2)c1ccc(F)cc1` (stereo not drawn), the kinetic solubility amounted to 1.4 µg/mL (≈ 4.64 µM).
With `CC1CC(=O)Nc2ccccc2N1S(=O)(=O)c1ccc(C#N)cc1` (stereo not drawn) the figure was 2.7 µg/mL (≈ 7.91 µM); with `O=C(c1cc(-c2ccccc2)on1)N1CCC2(CC1)OCCO2`, over 47.2 µg/mL; with `O=C1N=C(N2CCc3ccccc3C2)S/C1=C\c1ccc(O)cc1`, 3.4 µg/mL (≈ 10.1 µM).
Molecule `CN1C(=O)Cc2cc(S(=O)(=O)NCc3cccs3)ccc21` displayed a kinetic solubility of over 48.4 µg/mL.
The molecule `O=C(COC(=O)c1ccc(O)cc1O)Nc1ccc(Cl)cn1` returned a kinetic solubility of 46.5 µg/mL (≈ 144 µM).
`C=CCNC(=O)c1cc2sccc2n1C` displayed a solubility (kinetic) of over 33 µg/mL.
The molecule `CN1CCN(CC(=O)N2c3ccccc3Sc3ccccc32)CC1` had a solubility (kinetic) of over 50.9 µg/mL.
As to `Cc1cccc(C)c1OCC(O)CN1CCc2ccccc2C1.Cl` (stereo not drawn), the kinetic solubility was over 52.2 µg/mL.
With `Cc1cc(NC(=O)COC(=O)c2ccccc2NCCO)no1` the figure was over 47.9 µg/mL; with `O=C(CN1c2cccc3cccc(c23)S1(=O)=O)Nc1ccc(F)c(F)c1F`, 2.9 µg/mL (≈ 7.39 µM); with `O=C(CNS(=O)(=O)c1ccccc1)Nc1ccc(F)cc1F`, over 48.9 µg/mL.
On to `Cc1nc(S(=O)(=O)Nc2ccc3c(c2)OCCO3)cn1C`, for which the solubility (kinetic) was 13.1 µg/mL (≈ 42.3 µM).
With `O=C(CSc1nc2ncc(Cl)cc2[nH]1)N1CCC(Cc2ccccc2)CC1` the figure was 1 µg/mL (≈ 2.49 µM); with `O=C(/C=C/c1ccco1)N1CCN(S(=O)(=O)c2cccc([N+](=O)[O-])c2)CC1`, 28.1 µg/mL (≈ 71.8 µM); with `Nc1cc(=O)[nH]c(=O)n1-c1ccc(Cl)cc1`, over 35.6 µg/mL.
With `CCOc1ccc(C=NCC(O)c2ccccc2)cc1` (stereo not drawn), the solubility (kinetic) worked out at 37 µg/mL (≈ 137 µM).
`Clc1ccc2c(c1)Nc1ccccc1CC2` had a solubility (kinetic) of under 0.5 µg/mL.
`Cc1nnc(NC(=O)CN2C(=O)NC3(CCCC3)C2=O)s1` gave a kinetic solubility of over 46.4 µg/mL.
Molecule `COc1ccccc1C(=O)N(Cc1ccccc1)c1ccc(C)cc1` gave a kinetic solubility of 24.1 µg/mL (≈ 72.7 µM).
In turn, `CCc1ccccc1NC(=O)C1CCN(S(C)(=O)=O)CC1` showed a solubility (kinetic) of over 46.6 µg/mL.
In turn, `Cc1ccccc1C(=O)/C=C1/SCC(=O)N1C` gave a solubility (kinetic) of over 37.1 µg/mL.
To `CCOC(=O)CC1C(=O)NCCN1C(=O)c1cccc(OC)c1` (stereo not drawn) belongs 44.4 µg/mL (≈ 139 µM); to `N#Cc1ccc(OCC(O)CS(=O)(=O)c2ccccc2)cc1` (stereo not drawn), 46.6 µg/mL (≈ 147 µM).
With `O=S(=O)(Nc1cc(F)ccc1F)c1cccc2nonc12` the figure was over 46.7 µg/mL; with `COc1ccccc1NS(=O)(=O)c1ccc(C(=O)NCc2ccc(S(N)(=O)=O)cc2)cc1`, 20.3 µg/mL (≈ 42.7 µM).
Turning to `C=CCNc1nc(C(=O)OC(C)C(=O)c2ccc(C)cc2)cs1` (stereo not drawn), the solubility (kinetic) is 8.8 µg/mL (≈ 26.6 µM).
With `CC(=O)NCCN1C(=O)S/C(=C\c2cccs2)C1=O` the figure was over 44.5 µg/mL; with `Cc1nc(Cl)c(C(=O)NCCc2ccccc2)c(C)c1[N+](=O)[O-]`, 3.5 µg/mL (≈ 10.5 µM).
In turn, `O=[N+]([O-])c1ccc(C(O)C(CO)NC(=S)Nc2ccccc2)cc1` (stereo not drawn) had a solubility (kinetic) of over 52.1 µg/mL.
With `O=C(c1ccccc1)N1CCN(c2ncccn2)CC1` the figure was over 40.2 µg/mL; with `Cc1ccc2c(c1)=C/C(=C\c1c(O)[nH]c(=O)[nH]c1=O)C(=O)N=2`, under 0.2 µg/mL.
As for `COC(=O)N1c2ccccc2CCc2ccccc21`, the solubility (kinetic) was found to be 36.6 µg/mL (≈ 144 µM).
Consider `CC(NC(=O)Nc1ccc(F)cc1)c1ccc2c(c1)OCO2` (stereo not drawn), for which the solubility (kinetic) was found to be 3.4 µg/mL (≈ 11.2 µM). Against the preceding molecule, the solubility kinetic is about 11-fold lower.
`CCC1CCCCN1C(=O)NC(=O)c1ccccc1` (stereo not drawn) yielded a kinetic solubility of over 39.1 µg/mL.
Molecule `Nn1c(SCC(=O)NCCc2ccc(S(N)(=O)=O)cc2)nnc1C1CCCCC1` came in with a kinetic solubility of over 65.8 µg/mL.
For the molecule `CCN(CC)S(=O)(=O)c1ccc(=O)[nH]c1`, the solubility (kinetic) was over 34.5 µg/mL.
As to `COc1cccc(-c2nc(-c3ccc(Br)o3)no2)c1`, the kinetic solubility was 0.5 µg/mL (≈ 1.56 µM).
The molecule `CNCC(=O)O` returned a solubility (kinetic) of 5.6 µg/mL (≈ 62.9 µM).
`COc1ccc(/C=C/C(=O)NCCc2nc3ccccc3[nH]2)cc1` displayed a kinetic solubility of 9.9 µg/mL (≈ 30.8 µM).
To `O=C(O)C1CCCCN1C(=O)c1cc2c(s1)CCCCC2` (stereo not drawn) belongs over 46.1 µg/mL; to `c1ccc(Sc2ccccn2)cc1`, over 28.1 µg/mL.
As for `CN(Cc1ccccc1)C(=O)COC(=O)c1cc(=O)[nH]c2ccccc12`, the kinetic solubility amounted to 34.4 µg/mL (≈ 98.2 µM).
`COc1ccc(NC(=O)C2=CC=CN3CCS(=O)(=O)N=C23)c(OC)c1` registered a solubility (kinetic) of 13.8 µg/mL (≈ 38 µM).
Regarding `C=CCOC(=O)c1cn(CC)c2nc(C)ccc2c1=O`, the solubility (kinetic) is over 40.8 µg/mL.
`Cc1ccc(C2N=C(N)Nc3nc4ccccc4n32)cc1` (stereo not drawn) showed a solubility (kinetic) of 35 µg/mL (≈ 126 µM).
Turning to `O=C(c1ccccc1)C1CCN(c2ncccc2[N+](=O)[O-])CC1`, the solubility (kinetic) is 10.8 µg/mL (≈ 34.7 µM).
The molecule `Cc1csc(NC(=O)CSc2[nH]c(=O)ncc2C)n1` came in with a kinetic solubility of over 44.5 µg/mL.
Take `Cc1ccccc1C(=O)N1CCc2c([nH]c3ccccc23)C1C(F)(F)F` (stereo not drawn): the kinetic solubility was under 0.4 µg/mL.
For the molecule `CC(C)N1C(=O)CCC1C(=O)NCc1ccc(F)cc1Cl` (stereo not drawn), the kinetic solubility was over 46.9 µg/mL.
`CC(NC(=O)c1ccc(N)cc1)c1ccccc1` (stereo not drawn) came in with a kinetic solubility of over 36 µg/mL.
Molecule `COn1c(=O)c(-c2ccccc2)[n+]([O-])c2ccccc21` yielded a kinetic solubility of over 40.2 µg/mL.
With `Cc1ccc(-c2csc(NC(=O)c3ccccc3F)c2C(=O)O)cc1` the figure was over 53.3 µg/mL.
For `O=C(Nc1ccc(F)cc1)/C(=C1/CCCCCN1)[N+](=O)[O-]`, the kinetic solubility is over 44 µg/mL.
As for `COc1cccc(/C=C/C(=O)OCC(=O)Nc2cccc(S(=O)(=O)NC3=NCCCCC3)c2)c1`, the solubility (kinetic) turned out to be 13.5 µg/mL (≈ 27.8 µM).
Molecule `COCc1nnc(NC(=O)C2CC(=O)N(C3CCCCC3)C2)s1` (stereo not drawn) showed a kinetic solubility of over 50.8 µg/mL.
The molecule `COc1ccc(OS(=O)(=O)c2c(C)noc2C)cc1` registered a kinetic solubility of 29.3 µg/mL (≈ 103 µM).
`COc1ccc(OCCC(=O)OCC(=O)Nc2cccc(S(=O)(=O)N3CCCCC3)c2)cc1` displayed a kinetic solubility of 30.5 µg/mL (≈ 64 µM).
Molecule `CN(CC(=O)Nc1cccc(F)c1)C(=O)CC1CCCC1` displayed a kinetic solubility of over 43.9 µg/mL.
